The values below come from US7378409B2, “Substituted cycloalkylamine derivatives as modulators of chemokine receptor activity” (Bristol-Myers Squibb Company, priority 2003, dated 2008).

SMILES strings stand for the structures.

The nature of this data set: Long-term storage stability of the isolated salt. The format is physicochemical. To be noted: TFA salt of the title compound; converted to free base for that reason. The procedure: Example 3a, Step 5: A solution of (1R,3R,4S)-3-butyl-N1-isopropyl-N1-methylcyclohexane-1,4-diamine (58 mg, 0.25 mmol) in methylene chloride (5 mL) was charged successively with HATU (113 mg, 0.29 mmol), 2-(5-(trifluoromethyl)-1H-indazol-3-ylamino)acetic acid (58 mg, 0.22 mmol), and N,N-diisopropylethylamine (0.22 mL, 1.24 mmol). The reaction was stirred for 16 h at RT, concentrated in vacuo, and diluted with EtOAc. The organic phase was washed successively with sat. NaHCO3, water, 1N HCl, water, and brine before being dried (sodium sulfate), filtered, and concentrated in vacuo. […] Accordingly, this material was dissolved in EtOAc and the organic phase was washed with sat. NaHCO3 and brine before being dried (sodium sulfate), filtered, and concentrated in vacuo to afford the free base of the title compound, N-((1S,2R,4R)-2-butyl-4-(isopropyl(methyl)amino)cyclohexyl)-2-(5-(trifluoromethyl)-1H-indazol-3-ylamino)acetamide. MS found: (M+H)^+=468.4.

Consider `CCCC[C@@H]1C[C@H](N(C)C(C)C)CC[C@@H]1NC(=O)CNc1n[nH]c2ccc(C(F)(F)F)cc12` [Example 3a, N-((1S,2R,4R)-2-butyl-4-(isopropyl(methyl)amino)cyclohexyl)-2-(5-(trifluoromethyl)-1H-indazol-3-ylamino)acetamide], for which the “stability to long-term storage” value is on record as “unstable to long-term storage”.
